Test results taken from PubChem BioAssay AID1959 (Broad Institute, 2009).
Calls of active or inactive are those of the source.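 Rule for the calls: active = growth-inhibition EC50 no more than tenfold above the top tested dose; inconclusive = flat fit between 30% and 70% inhibition, or unreliable fit; inactive = EC50 more than tenfold above the top tested dose.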

Tested on: E. coli NEB5alpha growth, BacTiter-Glo luminescence, 4 h
Assay: antibacterial activity against E. coli NEB5alpha – luminescence, counter-screen for MEX-5/POS-1 RNA-binding inhibitor project, dose response (AID 1959);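 note: pUC19-transformed ampicillin-resistant cells grown in LB with ampicillin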

| SMILES | EC50 |
| --- | --- |
| COc1ccc(-c2nc(CS(=O)CC(=O)NCc3ccccn3)c(C)o2)cc1 (stereo not drawn) | > 11 µM (inactive) |
| COc1cc(OC)c(C2C(C#N)=C(N)OC3=C2C(=O)CC(C)(C)C3)cc1OC (stereo not drawn) | > 11 µM (inactive) |
| CCCCN1C(=O)/C(=C/C=C2\Oc3ccccc3N2CC)SC1=S | > 11 µM (inactive) |
| Cc1ccc2ccc(C3C(=O)c4ccccc4C3=O)nc2c1 | > 11 µM (inactive) |
| COC/C=C/C1=CC2=CC(=O)C(C)(OC(=O)CCC(=O)OC)C(=O)C2=CO1 (stereo not drawn) | > 11 µM (inactive) |
| c1coc(-c2nnc(-c3ccco3)nn2)c1 | > 11 µM (inactive) |
| COCCn1c(N)c(NCc2ccccc2)c(=O)[nH]c1=O | > 11 µM (inactive) |
| CCCCNC(=O)c1cc2c(=O)n3cccc(C)c3nc2n(Cc2ccncc2)c1=N | > 11 µM (inactive) |
| COc1ccc(C2OC34CCCCC3C(C#N)(C#N)C2(C#N)C(=N)O4)cc1 (stereo not drawn) | > 11 µM (inactive) |
| O=c1[nH]c(=O)n(-c2cccc(Cl)c2)c(O)c1/C=N/c1ccccn1 | > 11 µM (inactive) |
| O=C(c1ccc(Br)o1)N1CCN=C1SCc1cccc(F)c1 | > 11 µM (inactive) |
| O=C(CNS(=O)(=O)c1ccc([N+](=O)[O-])cc1)N/N=C/c1ccc(O)cc1O | > 11 µM (inactive) |
| Cc1cc2c3c(c1)C1(C(=O)N3C(C)(C)CC2C)C(C#N)=C(N)OC2=C1C(=O)CC(C)(C)C2 (stereo not drawn) | > 11 µM (inactive) |
| COc1ccc(CNC(=O)COC(=O)c2cc(-c3ccc(Cl)s3)nc3ccccc23)cc1 | > 11 µM (inactive) |
| Cc1ccc2c(c1C)NC(C(=O)O)C1CC=CC21 (stereo not drawn) | > 11 µM (inactive) |
| CCCCNC(=S)NNC(=O)c1cc(C)on1 | > 11 µM (inactive) |
| Oc1ccc2ccccc2c1/C=N/Nc1nnc(-c2ncc[nH]2)c2ccccc12 | > 11 µM (inactive) |
| Cc1nonc1OCCNCCNc1ccc([N+](=O)[O-])c2cccnc12 | > 11 µM (inactive) |
| Cc1c(/C=N/NC(=O)c2cc(=O)[nH]c(=O)[nH]2)c2ccccn2c1C(=O)c1ccccc1 | > 11 µM (inactive) |
| Cc1ccc(NC(=O)/C(C#N)=C/c2ccc(C)s2)c(C)c1 | > 11 µM (inactive) |
| Cc1ccc(NC(=O)CSc2nccc(=O)[nH]2)c(S(=O)(=O)N2CCOCC2)c1 | > 11 µM (inactive) |
| COc1ccc(C2C=C(c3ccc(Br)s3)Nc3ncnn32)cc1OC (stereo not drawn) | > 11 µM (inactive) |
| CC(=O)c1ccc(C(=O)Nc2sc3c(c2C(N)=O)CCN(Cc2ccccc2)C3)cc1 | > 11 µM (inactive) |
| CC(C)(C)OC(=O)NCCCCC1=CC2=CC(=O)C(C)(OC(=O)c3cnc4ccccc4n3)C(=O)C2=CO1 (stereo not drawn) | > 11 µM (inactive) |

| SMILES | EC50 |
| --- | --- |
| Cc1n[nH]c(C)c1S(=O)(=O)N1CCCC(C(=O)Nc2ccc(Br)cc2)C1 (stereo not drawn) | > 11 µM (inactive) |
| COC(=O)c1cc2n3ccccc3c(C)c(-c3ccccc3)c-2c1C(=O)OC | > 11 µM (inactive) |
| COc1cccc(=O)c2c(C)oc(C)c12 | > 11 µM (inactive) |
| CCOC(=O)N1CCN(/C=C(\C#N)c2nc3ccccc3s2)CC1 | > 11 µM (inactive) |
| CC1N(C)c2cccc3cccc(c23)N1C | > 11 µM (inactive) |
| COc1ccc(N=Cc2c(O)n(-c3cccc(C)n3)c(=O)c3ccccc23)c(OC)c1 | > 11 µM (inactive) |
| C=CCOc1ccc(C2OC34CCCCC3C(C#N)(C#N)C2(C#N)C(=N)O4)cc1 (stereo not drawn) | > 11 µM (inactive) |
| O=C(c1cccs1)c1ccc(-c2cccs2)s1 | > 11 µM (inactive) |
| CCOC(=O)C1=C(C)N=c2s/c(=C/c3ccc(OCC(=O)O)cc3)c(=O)n2C1c1ccc(OC)cc1OC (stereo not drawn) | > 11 µM (inactive) |
| CCCN1CCc2cccc3c2[C@H]1Cc1ccc(O)c(O)c1-3 | > 11 µM (inactive) |
| COCc1cc(=O)n2[nH]c(-c3cccs3)cc2n1 | > 11 µM (inactive) |
| Brc1ccc(C2=CC(c3ccco3)n3ncnc3N2)cc1 (stereo not drawn) | > 11 µM (inactive) |
| CC(=O)c1cc(NC(=O)c2ccc(Cl)cc2)c(=O)oc1/C=C/N(C)C | > 11 µM (inactive) |
| Cc1[nH][nH]c(=O)c1C(c1ccc(-c2ccccc2C(=O)O)o1)c1c(C)[nH][nH]c1=O | > 11 µM (inactive) |
| Cc1ccc(/C(O)=C/c2nc3cc(C)ccc3oc2=O)cc1 | > 11 µM (inactive) |
| COc1ccc(/C=N/NC(=O)c2ccc(N(C)S(=O)(=O)c3ccccc3)cc2)cc1 | > 11 µM (inactive) |
| COc1cc2ccccc2cc1C(=O)NC(=S)Nc1cc(C(=O)O)ccc1C | > 11 µM (inactive) |
| COc1cc(OC)c2c(O)c3c(c(-c4c5c(c(O)c6c(OC)cc(OC)cc46)CO[C@@H](C)[C@H]5O)c2c1)[C@H](O)[C@H](C)OC3 | > 11 µM (inactive) |
| NS(=O)(=O)c1ccc(-c2ccc(/C=C3\NC(=S)NC3=O)o2)cc1 | > 11 µM (inactive) |
| NC(=O)c1sc2nnc(-c3ccccc3)c(-c3ccccc3)c2c1N | > 11 µM (inactive) |
| Cc1cc(/C=C2\C(=O)NC(=O)N(c3ccc(Br)cc3)C2=O)c(C)n1C | > 11 µM (inactive) |
| COc1ccccc1N1C(=O)S/C(=C\c2ccc(C)s2)C1=O | > 11 µM (inactive) |
| CSc1nsc2nc(=O)c(/C=C3\C=Nc4ccccc43)c(N)n12 | > 11 µM (inactive) |
| COc1ccc(/C=C2\CCCc3c2nc2ccccc2c3C(=O)O)cc1OC | > 11 µM (inactive) |
